Experimental data as given in the supplement of paper PMC10307832.

What was measured:
Assay in all cases: relative viability (nuclei count vs DMSO), 5 days (fraction); higher = more cells survive
[1] = compound: CS(=O)(=O)c1ccc(-c2cnc(N)c(C(=O)Nc3ccccc3)n2)cc1 [VE-821] + Nc1nc2[nH]cc(CCc3ccc(C(=O)N[C@@H](CCC(=O)O)C(=O)O)cc3)c2c(=O)[nH]1 [Pemetrexed] (partner 0.2 µM)
In short: (§1)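 Cells from lung cancer lines were seeded into 1536-well plates and, one day later, dosed by pin tool. Treatments were either a single drug or a fixed dose of an anchor drug with five library-drug doses (not always all listed) in √10 steps. After 5 days, nuclei were stained in a one-step fixation (final 0.05% Triton X-100, 1% formaldehyde, 1 ug/ml Hoechst) and counted on 4× images, and relative viability is the treated-to-vehicle nuclei ratio, as the median of duplicate plates.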

[2] = compound: CS(=O)(=O)c1ccc(-c2cnc(N)c(C(=O)Nc3ccccc3)n2)cc1 [VE-821] + O=C(CCCCCCC(=O)Nc1ccccc1)NO [Vorinostat] (partner 1 µM)
In short: as §1

[3] = compound: N#CC[C@H](C1CCCC1)n1cc(-c2ncnc3[nH]ccc23)cn1 [Ruxolitinib] + Cc1cc(Nc2cc(N3CCN(C)CC3)nc(Sc3ccc(NC(=O)C4CC4)cc3)n2)n[nH]1 [Tozasertib] (partner 0.1 µM)
In short: as §1

[4] = compound: N#CC[C@H](C1CCCC1)n1cc(-c2ncnc3[nH]ccc23)cn1 [Ruxolitinib] + O=C(c1cc(Cc2n[nH]c(=O)c3ccccc23)ccc1F)N1CCN(C(=O)C2CC2)CC1 [Olaparib] (partner 8 µM)
In short: as §1

For NCI-H520, the relative viability ([1]; first compound 0.08 µM) was 0.75, the relative viability ([1]; first compound 0.253 µM) was 0.657 and the relative viability ([1]; first compound 0.8 µM) was 0.582. It also gave a relative viability ([1]; first compound 2.53 µM) of 0.361, a relative viability ([1]; first compound 8 µM) of 0.223 and a relative viability ([2]; first compound 0.08 µM) of 0.614. For the same cell line, the relative viability ([2]; first compound 0.253 µM) was 0.779, the relative viability ([2]; first compound 0.8 µM) was 0.719 and the relative viability ([2]; first compound 2.53 µM) was 0.603. It also gave a relative viability ([2]; first compound 8 µM) of 0.353, a relative viability ([3]; first compound 0.08 µM) of 0.553 and a relative viability ([3]; first compound 0.253 µM) of 0.467. For the same cell line, the relative viability ([3]; first compound 0.8 µM) was 0.537, the relative viability ([3]; first compound 2.53 µM) was 0.439 and the relative viability ([3]; first compound 8 µM) was 0.477. It also gave a relative viability ([4]; first compound 0.08 µM) of 0.298, a relative viability ([4]; first compound 0.253 µM) of 0.375 and a relative viability ([4]; first compound 0.8 µM) of 0.366. For the same cell line, the relative viability ([4]; first compound 2.53 µM) was 0.343 and the relative viability ([4]; first compound 8 µM) was 0.284.

Work on NCI-H1355 yielded a relative viability ([1]; first compound 0.08 µM) of 1.15, a relative viability ([1]; first compound 0.253 µM) of 0.976 and a relative viability ([1]; first compound 0.8 µM) of 0.888. The relative viability ([1]; first compound 2.53 µM) was 1.05, the relative viability ([1]; first compound 8 µM) was 0.903 and the relative viability ([2]; first compound 0.08 µM) was 0.819. For the same cell line, the relative viability ([2]; first compound 0.253 µM) was 0.61, the relative viability ([2]; first compound 0.8 µM) was 0.663 and the relative viability ([2]; first compound 2.53 µM) was 0.72. It also gave a relative viability ([2]; first compound 8 µM) of 0.57, a relative viability ([3]; first compound 0.08 µM) of 0.575 and a relative viability ([3]; first compound 0.253 µM) of 0.564. The relative viability ([3]; first compound 0.8 µM) was 0.571, the relative viability ([3]; first compound 2.53 µM) was 0.594 and the relative viability ([3]; first compound 8 µM) was 0.574. For the same cell line, the relative viability ([4]; first compound 0.08 µM) was 0.745, the relative viability ([4]; first compound 0.253 µM) was 0.749 and the relative viability ([4]; first compound 0.8 µM) was 0.798. The relative viability ([4]; first compound 2.53 µM) was 0.655 and the relative viability ([4]; first compound 8 µM) was 0.616.

With NCI-H1563 the relative viability ([1]; first compound 0.08 µM) was 0.778, the relative viability ([1]; first compound 0.253 µM) was 0.7 and the relative viability ([1]; first compound 0.8 µM) was 0.613. It also gave a relative viability ([1]; first compound 2.53 µM) of 0.761 and a relative viability ([1]; first compound 8 µM) of 0.481.

Work on NCI-H1651 yielded a relative viability ([1]; first compound 0.08 µM) of 0.576, a relative viability ([1]; first compound 0.253 µM) of 0.616 and a relative viability ([1]; first compound 0.8 µM) of 0.625. For the same cell line, the relative viability ([1]; first compound 2.53 µM) was 0.554, the relative viability ([1]; first compound 8 µM) was 0.545 and the relative viability ([2]; first compound 0.08 µM) was 0.562. For the same cell line, the relative viability ([2]; first compound 0.253 µM) was 0.606, the relative viability ([2]; first compound 0.8 µM) was 0.583 and the relative viability ([2]; first compound 2.53 µM) was 0.556. It also gave a relative viability ([2]; first compound 8 µM) of 0.531, a relative viability ([3]; first compound 0.08 µM) of 0.714 and a relative viability ([3]; first compound 0.253 µM) of 0.637. For the same cell line, the relative viability ([3]; first compound 0.8 µM) was 0.64, the relative viability ([3]; first compound 2.53 µM) was 0.573 and the relative viability ([3]; first compound 8 µM) was 0.682. For the same cell line, the relative viability ([4]; first compound 0.08 µM) was 0.192, the relative viability ([4]; first compound 0.253 µM) was 0.179 and the relative viability ([4]; first compound 0.8 µM) was 0.189. For the same cell line, the relative viability ([4]; first compound 2.53 µM) was 0.198 and the relative viability ([4]; first compound 8 µM) was 0.211.

HCC-44 showed a relative viability ([1]; first compound 0.08 µM) of 0.613, a relative viability ([1]; first compound 0.253 µM) of 0.649 and a relative viability ([1]; first compound 0.8 µM) of 0.596. For the same cell line, the relative viability ([1]; first compound 2.53 µM) was 0.479, the relative viability ([1]; first compound 8 µM) was 0.447 and the relative viability ([2]; first compound 0.08 µM) was 1.07. It also gave a relative viability ([2]; first compound 0.253 µM) of 1.07, a relative viability ([2]; first compound 0.8 µM) of 1.12 and a relative viability ([2]; first compound 2.53 µM) of 1.15. It also gave a relative viability ([2]; first compound 8 µM) of 1.09, a relative viability ([3]; first compound 0.08 µM) of 0.953 and a relative viability ([3]; first compound 0.253 µM) of 1.11. For the same cell line, the relative viability ([3]; first compound 0.8 µM) was 1.15, the relative viability ([3]; first compound 2.53 µM) was 0.804 and the relative viability ([3]; first compound 8 µM) was 0.761. The relative viability ([4]; first compound 0.08 µM) was 0.958, the relative viability ([4]; first compound 0.253 µM) was 0.889 and the relative viability ([4]; first compound 0.8 µM) was 0.978. It also gave a relative viability ([4]; first compound 2.53 µM) of 0.922 and a relative viability ([4]; first compound 8 µM) of 0.995.

In the case of NCI-H1437, the relative viability ([1]; first compound 0.08 µM) is reported as 0.331, the relative viability ([1]; first compound 0.253 µM) is reported as 0.316 and the relative viability ([1]; first compound 0.8 µM) is reported as 0.281. It also gave a relative viability ([1]; first compound 2.53 µM) of 0.173, a relative viability ([1]; first compound 8 µM) of 0.187 and a relative viability ([2]; first compound 0.08 µM) of 0.847. For the same cell line, the relative viability ([2]; first compound 0.253 µM) was 0.797, the relative viability ([2]; first compound 0.8 µM) was 0.901 and the relative viability ([2]; first compound 2.53 µM) was 0.777. It also gave a relative viability ([2]; first compound 8 µM) of 0.611, a relative viability ([3]; first compound 0.08 µM) of 0.457 and a relative viability ([3]; first compound 0.253 µM) of 0.39. It also gave a relative viability ([3]; first compound 0.8 µM) of 0.406, a relative viability ([3]; first compound 2.53 µM) of 0.413 and a relative viability ([3]; first compound 8 µM) of 0.422. The relative viability ([4]; first compound 0.08 µM) was 0.669, the relative viability ([4]; first compound 0.253 µM) was 0.622 and the relative viability ([4]; first compound 0.8 µM) was 0.624. It also gave a relative viability ([4]; first compound 2.53 µM) of 0.549 and a relative viability ([4]; first compound 8 µM) of 0.463.

201T showed a relative viability ([1]; first compound 0.08 µM) of 0.333, a relative viability ([1]; first compound 0.253 µM) of 0.303 and a relative viability ([1]; first compound 0.8 µM) of 0.324. For the same cell line, the relative viability ([1]; first compound 2.53 µM) was 0.293, the relative viability ([1]; first compound 8 µM) was 0.231 and the relative viability ([2]; first compound 0.08 µM) was 0.991. It also gave a relative viability ([2]; first compound 0.253 µM) of 0.947, a relative viability ([2]; first compound 0.8 µM) of 0.992 and a relative viability ([2]; first compound 2.53 µM) of 1.01. The relative viability ([2]; first compound 8 µM) was 0.752, the relative viability ([3]; first compound 0.08 µM) was 1.11 and the relative viability ([3]; first compound 0.253 µM) was 1.19. The relative viability ([3]; first compound 0.8 µM) was 1.17, the relative viability ([3]; first compound 2.53 µM) was 1.21 and the relative viability ([3]; first compound 8 µM) was 1.11. For the same cell line, the relative viability ([4]; first compound 0.08 µM) was 0.941, the relative viability ([4]; first compound 0.253 µM) was 0.964 and the relative viability ([4]; first compound 0.8 µM) was 0.972. It also gave a relative viability ([4]; first compound 2.53 µM) of 1.01 and a relative viability ([4]; first compound 8 µM) of 0.894.

In the case of LCLC-103H, the relative viability ([1]; first compound 0.08 µM) is reported as 0.47, the relative viability ([1]; first compound 0.253 µM) is reported as 0.439 and the relative viability ([1]; first compound 0.8 µM) is reported as 0.518. For the same cell line, the relative viability ([1]; first compound 2.53 µM) was 0.475, the relative viability ([1]; first compound 8 µM) was 0.437 and the relative viability ([2]; first compound 0.08 µM) was 0.863. The relative viability ([2]; first compound 0.253 µM) was 0.772, the relative viability ([2]; first compound 0.8 µM) was 0.783 and the relative viability ([2]; first compound 2.53 µM) was 0.834. It also gave a relative viability ([2]; first compound 8 µM) of 0.592, a relative viability ([3]; first compound 0.08 µM) of 0.492 and a relative viability ([3]; first compound 0.253 µM) of 0.519. It also gave a relative viability ([3]; first compound 0.8 µM) of 0.595, a relative viability ([3]; first compound 2.53 µM) of 0.552 and a relative viability ([3]; first compound 8 µM) of 0.501. It also gave a relative viability ([4]; first compound 0.08 µM) of 0.774, a relative viability ([4]; first compound 0.253 µM) of 0.753 and a relative viability ([4]; first compound 0.8 µM) of 0.786. For the same cell line, the relative viability ([4]; first compound 2.53 µM) was 0.837 and the relative viability ([4]; first compound 8 µM) was 0.758.
